Our source for the IC50 and Kd values is ChEMBL document CHEMBL1156043, “Selective inactivation of triosephosphate isomerase from Trypanosoma cruzi by brevifolin carboxylate derivatives isolated from Geranium bellum Rose” (Bioorg Med Chem Lett, 2009).

In assay [1] the target is T1, Triosephosphate isomerase, glycosomal (Trypanosoma cruzi, UniProt P52270). The assay can be described thus: Inhibition of Trypanosoma cruzi recombinant triosephosphate isomerase after 2 hrs. The settings on record: read-out: I50.
T1 sequence (P52270 whole entry): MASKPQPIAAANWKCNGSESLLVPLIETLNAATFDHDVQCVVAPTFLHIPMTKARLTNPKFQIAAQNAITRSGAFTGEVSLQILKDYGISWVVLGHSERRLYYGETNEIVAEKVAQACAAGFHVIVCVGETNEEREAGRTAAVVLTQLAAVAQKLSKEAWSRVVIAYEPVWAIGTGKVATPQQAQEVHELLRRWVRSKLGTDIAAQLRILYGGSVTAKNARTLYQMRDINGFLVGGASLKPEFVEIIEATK
In assay [2] the target is Triosephosphate isomerase (Homo sapiens, UniProt P60174). The assay can be described thus: Inhibition of human recombinant triosephosphate isomerase after 2 hrs. To be noted: read-out: I50.
Triosephosphate isomerase, sequence (P60174 whole entry): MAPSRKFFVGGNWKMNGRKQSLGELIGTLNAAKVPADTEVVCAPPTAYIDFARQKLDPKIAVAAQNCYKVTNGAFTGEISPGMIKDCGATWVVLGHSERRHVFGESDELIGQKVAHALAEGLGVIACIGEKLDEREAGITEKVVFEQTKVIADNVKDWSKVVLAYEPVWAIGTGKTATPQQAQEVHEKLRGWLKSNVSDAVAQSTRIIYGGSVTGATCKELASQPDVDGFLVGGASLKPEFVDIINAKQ
Assay [3] has as its target T1, Triosephosphate isomerase, glycosomal. Put plainly: Binding affinity to Trypanosoma cruzi recombinant triosephosphate isomerase. To be noted: read-out: Kd(app).

As for `COC(=O)C1CC(=O)c2oc(=O)c3cc(OC)c(OC)c(OC)c3c21` (centres undefined), the IC50 in assay [1] and in assay [2] was greater than 1000 µM in each case.
On to `CCCCOC(=O)C1CC(=O)c2oc(=O)c3cc(O)c(O)c(O)c3c21` (centres undefined) [BUTYLBREVIFOLIN CARBOXYLATE], for which the results for the IC50 in assay [1] and in assay [2] were 14 µM and greater than 1000 µM, respectively.
As for `CCOC(=O)C1CC(=O)c2oc(=O)c3cc(O)c(O)c(O)c3c21` (centres undefined) [ETHYLBREVIFOLIN CARBOXYLATE], the figures for the IC50 in assay [1] and in assay [2] were 8 µM and greater than 1000 µM, respectively.
Consider `COC(=O)C1CC(=O)c2oc(=O)c3cc(O)c(O)c(O)c3c21` (centres undefined) [METHYLBREVIFOLIN CARBOXYLATE], for which the results for the IC50 in assay [1] and in assay [2] were 6.5 µM and greater than 1000 µM, respectively. In addition, the Kd in assay [3] turned out to be 10.4 µM.
